Test results from US11299496B2, “Ligands for alpha-7 nicotinic acetylcholine receptors and methods of treating neurological and inflammatory conditions” (Northeastern University, priority 2014, dated 2022).

How the values were obtained:
Format in all cases: in vivo, mouse
CCI mice = assay: Chronic constriction injury (CCI) model, mechanical allodynia (von Frey)
Method: Mice were anesthetized with pentobarbital (45 mg/kg, i.p.). An incision was made just below the hipbone, parallel to the sciatic nerve. The right common sciatic nerve was exposed at the level proximal to the sciatic trifurcation, and a nerve segment 3-5 mm long was separated from surrounding connective tissue. Two loose ligatures with 6-0 silk suture were made around the nerve with a 1.0-1.5 mm interval between them. Muscles were closed with suture thread and the wound with wound clips. […] Any suture that remained after two weeks was removed from the healed surgical wound. Mechanical allodynia (von Frey test) was measured before and after drug injections.
The antiallodynic effects of test compounds were assessed in three experiments consisting of CCI mice and sham control mice. […] The anti-allodynic effects of alpha-7 nAChRs PAMs and ago-PAMs were tested (four doses and vehicle control, N=10 mice/group, administered i.p.) in the CCI model. Mice were assessed for mechanical allodynia 2 weeks after the CCI surgery. All these studies will be conducted in blinded manner. CCI and sham control mice received two conditioning sessions per day (vehicle in the morning and drug in the afternoon) over the course of 3 days, and were tested for a place preference on day 7 without any injections.
Pain behavioral data are presented as mean±S.E.M. (see FIGS. 5A and 5B). Statistical analysis was performed using the t-test or two-way analysis of variance test, followed by the post-hoc Bonferroni's test. All differences were considered significant at p<0.05, and significant differences are shown with asterisks in FIGS. 5A and 5B. ED50 values with 95% confidence limits (CL) were calculated by unweighted least-squares linear regression.

CFA-injected mice = assay: Complete Freund's Adjuvant test (mechanical allodynia, thermal hyperalgesia)
Method: Mice were injected with 20 μl of CFA (0.5 mg/ml of heat killed Mycobacterium tuberculosis, Sigma) in the intraplantar region of the right hindpaw. Paw diameter and thermal hyperalgesia (see paw withdrawal test) were measured 3 days after CFA injection. In separate groups of mice that received CFA, mechanical allodynia thresholds were determined according to previously published method (Ondachi et. al. J Med Chem. 2014 Feb. 13; 57(3):836-48. doi: 10.1021/jm401602p). Mice were placed in a plexiglas cage with mesh metal flooring and allowed to acclimate for 30 min before testing. A series of calibrated von Frey filaments (Stoelting, Wood Dale, Ill.) with logarithmically incremental stiffness ranging from 2.83 to 5.88 expressed as log 10 of [10 £ force in (mg)] were applied to the paw with a modified up-down method. In the absence of a paw withdrawal response to the initially selected filament, a thicker filament corresponding to a stronger stimulus was presented. In the event of paw withdrawal, the next weaker stimulus was chosen. Each hair was presented perpendicularly against the paw, with sufficient force to cause slight bending, and held 2-3 s. The stimulation of the same intensity was applied 5 times to the hindpaw at intervals of a few seconds. Three or more responses out of five stimulations were coded as a positive response. Once a positive response was detected, sequentially lower weight filaments were used to assess the sensory threshold for each paw. The allodynia scores were recorded in a blinded fashion.
A similar sequence of drug treatment described for the formalin testing was used to test the antinociceptive effects of alpha-7 nAChRs ago-PAMs in the CFA model of inflammatory pain. […] Paw diameter and mechanical allodynia will be measured 3 days after CFA injection. We assessed the dose-response relationship of […]7 nAChRs ago-PAMs (4 doses) in reversing CFA-induced mechanical allodynia and paw edema.

formalin-injected mice = assay: Formalin test (intraplantar formalin, paw licking, paw edema)
Method: A formalin test was carried out in an open plexiglas cage, with a mirror placed at a 45° angle behind the cage to allow an unobstructed view of the paws. Mice were allowed to acclimate for 15 min in the test cage prior to injection. Each animal was injected intraplantar with 20 μl of 2.5% formalin to the right hindpaw. Each mouse was then immediately placed in the test cage. Up to two mice at one time were observed during 0 to 5 min after injection (phase 1) and during 20-45 min post injection (phase 2). The period between the two phases of nociceptive responding is generally considered to be a phase of weak activity. The amount of time spent licking the injected paw was recorded with a digital stopwatch.
Further, the antinociceptive activity of drugs in phase II of the formalin test and their anti-allodynic response in the CCI model was tested. Mice received vehicle or methyllycaconatine (MLA, 10 mg/kg) prior to vehicle or an ED84 dose of the ago-PAM/PAM (determined from a dose-response experiment using the formalin intraplantar injection model). […] The MLA results were confirmed by testing the ED84 dose of the test compounds in the alpha-7 KO and wild type mice. Finally, it was tested whether tolerance develops to the antinociceptive effects of alpha-7 nAChR ago-PAM following 7 days of repeated injections of its ED84 dose. Mice were given the following treatments: vehicle (7 days of vehicle administration); acute alpha-7 nAChR test compounds (6 days of vehicle administration followed by alpha-7 nAChR ago-PAM on the last day); and repeated alpha-7 nAChR test compounds (7 days of alpha-7 nAChR PAM or ago-PAM).

SMILES: NS(=O)(=O)c1ccc2c(c1)[C@H]1C=CC[C@H]1[C@@H](c1ccc(Br)cc1)N2 [Compound 1, (3aR,4S,9bS)-4-(4-bromophenyl)-3a,4,5,9b-tetrahydro-3H-cyclopenta[c]quinoline-8-sulfonamide]
- anti-allodynic effect in CCI mice (CCI mice; i.p., FIG. 5A): significant anti-allodynic effect
- effect on sham mice (CCI mice; sham control mice): no effect on sham mice
- antiallodynic and antihyperalgesic effects after MLA (CFA-injected mice; data not shown): MLA blocked the effects
- duration of antiallodynic effect (CFA-injected mice; i.p., dose dependent): 180 min
- duration of antihyperalgesic effect (CFA-injected mice; mouse, in vivo): 60 min
- activity in alpha-7 nAChR knockout mice (formalin-injected mice; FIG. 3D): inactive
- effect of GAT107 after MLA (formalin-injected mice; MLA 10 mg/kg prior, FIG. 3C): reversed the effects of GAT107
- nociceptive behavior of formalin phase II (formalin-injected mice; given i.v., FIG. 3A): dose-dependently and significantly block the nociceptive behavior of formalin phase II
- nociceptive behavior of formalin phase II (formalin-injected mice; given orally, FIG. 3B): dose-dependently and significantly block the nociceptive behavior of formalin phase II
- paw edema induced by formalin intraplantar injection (formalin-injected mice; mouse, in vivo): reduced the paw edema
